Laboratory results published in patent publication US5358707A, “Oxidized variants of GM-CSF” (Schering Corporation, priority 1992, dated 1994).
Where “and” joins values, the source holds several entries; their conditions need not be identical. Equal values may be shown once.

Columns and labels:
[1] = system: KG-1 cells; assay: KG-1 Cell Bioassay (MTT, cell growth stimulation); assay type: cell-based, human
Experimental: Briefly, cultures of about 1×10^4 cells were incubated with dilutions of the various proteins in Iscove's modified Dulbecco's medium at 37° C. for 6 days. The tetrazolium salt MTT (3-[4,5-Dimethylthiazol-2-yl]-2,5-diphenyltetrazolium bromide; Thiazolyl blue) was then added at a final concentration of 0.5 mg/ml, and incubation was continued for another 4 hours. MTT is cleaved by mitochondrial dehydrogenase enzymes to produce a colored reaction product, formazan, the quantity of which is directly related to LOG2 cell concentration.

[2] = Analytical isoelectric focusing; assay type: physicochemical

## GM-CSF: Unoxidized recombinant mature human GM-CSF produced in E. coli; designated V0 when isolated from the secretory expression extract
[1]; KG-1 cells, 6 days, MTT, titer from dilution producing 50% maximal cell growth stimulation vs standard GM-CSF, MET-O and V variants analysed at different times
  Biological Activity (Units/mg × 10^-9): 2.9 Units/mg × 10^-9 and 5.3 Units/mg × 10^-9
[1]; percentage of the unoxidized GM-CSF specific bioactivity of the same run
  Biological Activity (% GM-CSF Activity): 100%
[2]
  pI: about 5.3
